# Tested on: Red blood cell (RBC)
# Assay: Red blood cell lysis (hemolysis)
# Settings: 1% Triton X-100, positive control
substance,measurement,value
Triton X-100,hemolysis,100%

# Reference: patent publication US11446238B2, “Injectable dendrimer hydrogel nanoparticles” (Wayne State University, priority 2010, dated 2022)
